Test results taken from PMC9457773 (Molecules, 2022).
Read-outs that look alike come from different tables or passages of the source. One block for each compound: values may come before it.

Tests used:
[1] = literature value, Introduction; cited from earlier work
[2] = literature value, Introduction, cited from earlier work
[3] = literature statement in words, Introduction, cited from earlier work
[4] = Stability of QC samples in rat plasma under various storage conditions; conditions: for Stability, Autosampler: measured concentration / Stability, Freeze-Thaw: measured concentration / Stability, Bench-Top: measured concentration / Stability, Long-Term: measured concentration: rat plasma QC, n = 6; for Stability, Autosampler: measured concentration: autosampler for 12 h; for Stability, Freeze-Thaw: measured concentration: freeze–thaw three times; for Stability, Bench-Top: measured concentration: room temperature for 4 h; for Stability, Long-Term: measured concentration: −80 °C for 30 days
Protocol: (§1) A 5 μL aliquot of the mixed working solution was added to 45 μL of blank plasma to prepare the calibration standards.
(§2) The selectivity of the method was assessed by comparing the chromatograms of six independent blank rat plasma samples, simulated plasma samples in which blank rat plasma samples were spiked with working solution at a lower limit of quantitation (LLOQ) and IS, and actual plasma samples collected from rats. […] Different concentrations of the QC and LLOQ samples, with six replicates at each concentration, were used to evaluate precision and accuracy, and inter-batch precision and accuracy were evaluated by measurements for three consecutive days. The precision was expressed as the coefficient of variation (CV%), and the accuracy was expressed as the relative error (RE%). The extraction recovery was evaluated by comparing the peak areas of blank plasma spiked with working solution pre-extraction and blank plasma spiked with working solution post-extraction. The matrix effect was evaluated by the ratio of the peak area of the analyte in the plasma to the peak area of the analyte in solution at three concentrations of the QC samples. […] Three concentrations of the QC samples, with six replicates at each concentration level, were used to examine the stability of the three analytes at room temperature for 4 h, in the autosampler for 12 h, at −80 °C for 30 days, and freeze–thaw three times.

[5] = Pharmacokinetic and drug–drug interaction study in rats (plasma, UPLC–MS/MS); conditions: for AUC(0-inf): AUCinf; for AUC(0-t): AUClast; for CL/F: CLz/F; for Vd/F: Vz/F; for half-life: t1/2z; for Tmax: median (range)
Protocol: First, 50 μL of the plasma sample was added to 5 μL of the mixture IS working solution and 500 μL of the extraction reagent (methyl tert-butyl ether and ethyl acetate, 1:4) vortex-mixed for 3 min and then centrifuged at 12,000 rpm for 10 min. Next, 400 μL of supernatant was transferred into a new centrifuge tube, which was blown dry under a stream of nitrogen, and the residue was re-solubilized with 150 μL of 50% acetonitrile–water.
The concentrations of analytes were determined by UPLC–MS/MS, which consisted of an LC-30A ultra-performance liquid chromatography (Shimadzu, Japan), and Sciex Triple Quad 5500 tandem triple quadrupole mass spectrometer (Applied Biosystems Sciex, Framingham, MA, USA). The XSelect HSS T3 column (2.1 mm × 100 mm, 2.5 μm, Waters, Milford, MA, USA) was used for chromatographic separation. Phase A (0.1% formic acid in ultrapure water containing 5 mM ammonium acetate) and phase B (acetonitrile) were used as the mobile phases for gradient elution at 0.35 mL/min.
The experimental animals were randomly divided into five groups (n = 6 per group). […] Approximately 0.25 mL of blood was collected from the orbital venous plexus of rats in pre-heparinized centrifuge tubes. […] Blood samples were centrifuged at 3500 rpm for 10 min, and the plasma was transferred to new centrifuge tubes and then stored at −80 °C.
The Cmax and Tmax (time to maximum plasma concentration) were read directly from the drug concentrations. The other pharmacokinetic parameters were analyzed using a non-compartmental analysis with Phoenix WinNonLin 8.2 software (Pharsight, Mountain View, Certara, CA, USA).

[6] = rat; for Stability, Bench-Top: measured concentration: 4 h; for Stability, Autosampler: measured concentration: 12 h; for Stability, Long-Term: measured concentration: 30 days
Protocol: as §1, §2

[7] = Sprague Dawley, rat, plasma, po, 100 mg/kg, sorafenib in rat plasma, oral single dose sorafenib 100 mg/kg alone (ISOR), n = 6, mean ± SD
[8] = Sprague Dawley, rat, plasma, po, 100 mg/kg, sorafenib in rat plasma, sorafenib 100 mg/kg oral co-administered with canagliflozin 10 mg/kg (IVSOR+CA), n = 6, mean ± SD
[9] = Sprague Dawley, rat, plasma, po, 1.2 mg/kg, lenvatinib in rat plasma, lenvatinib 1.2 mg/kg oral co-administered with canagliflozin 10 mg/kg (VLEN+CA), n = 6, mean ± SD
[10] = Sprague Dawley, rat, plasma, po, 1.2 mg/kg, lenvatinib in rat plasma, oral single dose lenvatinib 1.2 mg/kg alone (IILEN), n = 6, mean ± SD
[11] = lenvatinib (1.2 mg/kg) in the presence of canagliflozin (10 mg/kg) compared to lenvatinib alone, rats
[12] = lenvatinib in rat plasma, oral single dose lenvatinib 1.2 mg/kg alone (IILEN), n = 6, mean ± SD

stability during the different processing and storage conditions ([4]; rat plasma QC samples, room temperature 4 h, autosampler 12 h, −80 °C 30 days, three freeze–thaw cycles): stable | Stability, Autosampler: measured concentration ([4]; nominal 10 ng/mL): 11.13 ± 0.24 ng/mL | Stability, Freeze-Thaw: measured concentration ([4]; nominal 10 ng/mL): 10.55 ± 0.43 ng/mL | Stability, Bench-Top: measured concentration ([4]; nominal 10 ng/mL): 10.97 ± 0.29 ng/mL | Stability, Long-Term: measured concentration ([4]; nominal 10 ng/mL): 10.51 ± 0.43 ng/mL | Stability, Autosampler: measured concentration ([4]; nominal 1500 ng/mL): 1540.00 ± 95.71 ng/mL | Stability, Freeze-Thaw: measured concentration ([4]; nominal 1500 ng/mL): 1531.67 ± 117.88 ng/mL | Stability, Bench-Top: measured concentration ([4]; nominal 1500 ng/mL): 1551.67 ± 84.00 ng/mL | Stability, Long-Term: measured concentration ([4]; nominal 1500 ng/mL): 1565.00 ± 123.25 ng/mL | Stability, Autosampler: measured concentration ([4]; nominal 3750 ng/mL): 3961.67 ± 102.26 ng/mL | Stability, Freeze-Thaw: measured concentration ([4]; nominal 3750 ng/mL): 3698.33 ± 72.78 ng/mL | Stability, Bench-Top: measured concentration ([4]; nominal 3750 ng/mL): 3948.33 ± 99.88 ng/mL | Stability, Long-Term: measured concentration ([4]; nominal 3750 ng/mL): 3583.33 ± 67.43 ng/mL | AUC(0-inf) [5, 7]: 40300 ng·h/mL | AUC(0-inf) [5, 8]: 41300 ng·h/mL | AUC(0-t) [5, 7]: 40000 ng·h/mL | AUC(0-t) [5, 8]: 41200 ng·h/mL | CL/F [5, 7]: 47.7 mL/min/kg | CL/F [5, 8]: 42 mL/min/kg | Cmax [5, 7]: 1920 ± 298 ng/mL | Cmax [5, 8]: 2200 ± 535 ng/mL | Vd/F [5, 7]: 49 ± 18.8 L/kg | Vd/F [5, 8]: 38.3 ± 10.1 L/kg | half-life [5, 7]: 12.3 ± 2.23 h | Tmax ([5]; sorafenib in rat plasma, oral single dose sorafenib 100 mg/kg alone (ISOR), n = 6): 8.00 (7.00–8.00) h | t1/2z ([5]; sorafenib in rat plasma, sorafenib 100 mg/kg oral co-administered with canagliflozin 10 mg/kg (IVSOR+CA), n = 6, mean ± SD): 10.47 ± 0.94 h
Compound: CNC(=O)c1cc(Oc2ccc(NC(=O)Nc3ccc(Cl)c(C(F)(F)F)c3)cc2)ccn1 [sorafenib, Sorafenib]
plasma protein binding rate [1]: 99.5% | time to peak blood concentration ([2]; after oral administration): approximately 3 h | solubility [3]: poor | permeability ([3]; membrane permeability): high

Stability, Freeze-Thaw: measured concentration ([6]; 0.5 ng/mL): 0.53 ± 0.03 ng/mL | Stability, Freeze-Thaw: measured concentration ([6]; 150 ng/mL): 157.33 ± 11.02 ng/mL | Stability, Freeze-Thaw: measured concentration ([6]; 800 ng/mL): 725.83 ± 18.06 ng/mL | Stability, Bench-Top: measured concentration ([6]; 0.5 ng/mL): 0.54 ± 0.03 ng/mL | Stability, Bench-Top: measured concentration ([6]; 150 ng/mL): 156.67 ± 7.42 ng/mL | Stability, Bench-Top: measured concentration ([6]; 800 ng/mL): 794.00 ± 18.24 ng/mL | Stability, Autosampler: measured concentration ([6]; 0.5 ng/mL): 0.53 ± 0.04 ng/mL | Stability, Autosampler: measured concentration ([6]; 150 ng/mL): 162.67 ± 7.42 ng/mL | Stability, Autosampler: measured concentration ([6]; 800 ng/mL): 819.50 ± 30.36 ng/mL | Stability, Long-Term: measured concentration ([6]; 0.5 ng/mL): 0.47 ± 0.03 ng/mL | Stability, Long-Term: measured concentration ([6]; 150 ng/mL): 157.00 ± 12.63 ng/mL | Stability, Long-Term: measured concentration ([6]; 800 ng/mL): 714.00 ± 24.44 ng/mL | AUC(0-inf) [5, 9]: 7280 ± 1170 ng·h/mL | AUC(0-t) [5, 9]: 7280 ± 1170 ng·h/mL | CL/F [5, 9]: 2.83 mL/min/kg | CL/F [5, 10]: 3.67 mL/min/kg | Cmax [5, 9]: 985 ± 162 ng/mL | Cmax [5, 10]: 721 ± 144 ng/mL | Tmax ([5]; Sprague Dawley, rat, plasma, po, 1.2 mg/kg, Tmax, lenvatinib in rat plasma, oral single dose lenvatinib 1.2 mg/kg alone (IILEN), n = 6): 1.75 h | Vd/F [5, 9]: 1.56 ± 0.29 L/kg | Vd/F [5, 10]: 3.31 ± 1.51 L/kg | half-life [5, 9]: 6.49 ± 1.04 h | half-life [5, 10]: 10.5 ± 4.53 h | decrease of CLz/F [5, 11]: 22.7% | decrease of Vz/F [5, 11]: 52.9% | decrease of t1/2 [5, 11]: 38% | increase of AUCinf [5, 11]: 28.9% | increase of AUClast [5, 11]: 28.9% | increase of Cmax [5, 11]: 36.2% | Tmax ([5]; lenvatinib in rat plasma, lenvatinib 1.2 mg/kg oral co-administered with canagliflozin 10 mg/kg (VLEN+CA), n = 6): 1.50 (0.88–1.63) h | AUCinf [5, 12]: 5653 ± 1299 ng·h/mL | AUClast [5, 12]: 5640 ± 1292 ng·h/mL | increase of AUC ([5]; lenvatinib in the presence of canagliflozin, rats, abstract, AUC not specified as last or inf): 28.9%
Compound: COc1cc2nccc(Oc3ccc(NC(=O)NC4CC4)c(Cl)c3)c2cc1C(N)=O [lenvatinib, Lenvatinib]
plasma protein binding rate [1]: approximately 98% | half-life [2]: 28 h | solubility [3]: low
